Assay results from publication PMC1142193 (Evidence-based Complementary and Alternative Medicine, 2005).
Entries after “also recorded” stand apart in the source; their conditions may differ.

Biological target: SARS-CoV 3CL^Pro (Severe acute respiratory syndrome coronavirus, UniProt P0C6U8)
Test: biochemical
Type: biochemical
Settings: for IC50: IC50, inhibition of SARS 3CL^Pro activity

Row | SMILES | Inhibition of 3CL^Pro activity (in words) | Inhibition of 3CL^Pro activity at concentrations up to 100 µM (in words) | IC50 [µM]
1 | Cn1c(=O)c2c(ncn2C)n(C)c1=O [Caffeine, caffeine, reference compound] | did not inhibit; also recorded: did not influence 3CL^Pro activity | not able to inhibit | –
2 | Oc1cc(O)c2c(c1)O[C@H](c1ccc(O)c(O)c1)[C@H](O)C2 [EC, epicatechin] | did not inhibit | not able to inhibit | ≥ 100
3 | O=C(O[C@@H]1Cc2c(O)cc(O)cc2O[C@@H]1c1ccc(O)c(O)c1)c1cc(O)c(O)c(O)c1 [ECg, epicatechin gallate] | did not inhibit | not able to inhibit | ≥ 100
4 | Oc1cc(O)c2c(c1)O[C@H](c1cc(O)c(O)c(O)c1)[C@H](O)C2 [EGC, epigallocatechin] | did not inhibit | not able to inhibit | ≥ 100
5 | O=c1c(O)cc([C@H]2Oc3cc(O)cc(O)c3C[C@H]2O)cc2c([C@H]3Oc4cc(O)cc(O)c4C[C@H]3O)cc(O)c(O)c12 [TF1, Theaflavin] | found to inhibit 3CL^Pro | – | 56
6 | Cn1c(=O)c2[nH]cnc2n(C)c1=O [Theophylline, theophylline, reference compound] | did not inhibit; also recorded: did not influence 3CL^Pro activity | not able to inhibit | –
